Molecular target: T1, spin-labeled SULT1E1, spin label attached at Cys residue 233 (C69S/N233C) (Homo sapiens, UniProt P49888, C69S/N233C)
T1 construct: E. coli codon-optimized SULT1E1 coding region inserted into the PreScission Protease cleavage site; His/GST/MBP triple tag (N, cleaved yes); made in house; host or cells: E. coli BL21(DE3)
T1 sequence (P49888 1-294 C69S/N233C): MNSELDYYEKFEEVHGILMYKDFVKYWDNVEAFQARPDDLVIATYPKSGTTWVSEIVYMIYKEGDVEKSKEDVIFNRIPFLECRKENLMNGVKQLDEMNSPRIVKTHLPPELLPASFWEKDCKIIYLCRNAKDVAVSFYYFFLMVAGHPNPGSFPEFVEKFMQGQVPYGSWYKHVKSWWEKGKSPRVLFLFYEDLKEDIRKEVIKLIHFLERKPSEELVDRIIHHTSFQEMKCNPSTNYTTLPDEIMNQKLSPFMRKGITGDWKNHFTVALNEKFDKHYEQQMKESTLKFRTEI
Test: Initial-rate studies, spin-labeled construct (label at Cys 233)
Assay type: biochemical
Settings: spin label at Cys 233; parentheses = one SD; read-out: Ki OH-PCB1
Protocol: Spin labels were attached to the SULT1E1 scaffold at Cys residues that were site-specifically incorporated via PCR-based mutagenesis. Prior to creating spin-label attachment constructs, reactive Cys was removed from the native scaffold. Only one of the four native SULT1E1 Cys (i.e., C69) reacts with DTNB ([39]), and mutagenic conversion of C69 to ser produced a stable, fully active non-DTNB-reactive scaffold. Five individual cys-attachment constructs were prepared from the C69S mutant (G16C, K25C, N150C, Q163C, and N233C). Mutants were labeled (see, Experimental procedures) and the initial rate parameters (kcat, Km and Ki) of each spin-labeled mutant were determined (see, Experimental procedures, Initial-Rate studies) to evaluate whether the catalytic integrity of the constructs had been compromised by the insertions and/or spin label attachments. […]
Labels (N-cyclohexylmale-imide or 3-maleimido-PROXYL) were added in 20-fold excess over reactive cysteine to a solution containing SULT1E1 construct (50 μM active sites), 0.50 mM PAP, and 50 mM KPO4 (pH 7.4), 25 °C ± 2 deg. […] The reactions were monitored by using DTNB to measure unreacted cysteine and were considered complete when >98% of the cysteine had reacted (∼3 h).
C. Reaction progress was monitored via the fluorescence change associated with 1-HP sulfonation (λex = 325 nm, λem = 370 nm ([51], [52])). […]

## Oc1ccc(-c2c(Cl)cccc2Cl)cc1 [OH-PCB1, 4ʹ-OH-2,6-dichlorobiphenol]
  Ki: 0.058 µM
